From US10682319B2, “Necrosis inhibitors” (National Institute of Biological Sciences, Beijing, priority 2014, dated 2020) come the findings set out here.

For one assay, the system named is HT-29 cells. Nature of the assay: Necrosis assay (TNF-α/Smac mimetic/z-VAD induced necrosis, cell viability by ATP level). It counts as cell-based. Conditions: HT-29, TNF-α + Smac mimetic + z-VAD, 24 hrs, ATP level; values given as ranges in nM; read-out: EC50 (inhibition of necrosis in HT-29 cells). On the procedure:
HT-29 cells were cultured in McCoy's 5 A culture medium (Invitrogen). On day one, HT-29 cells were plated in 96-well assay plates at density of 2,500-3,500 cells per well. On day two, necrosis were induced by adding 20 ng/ml TNF-α (T), 100 nM Smac mimetic (S), and […] z-VAD (Z). At the same time, […] compound from a chemical library of ˜200,000 compounds was delivered into each well. After 24 hrs treatment, cell viability was determined by measuring ATP level using the CellTiter-Glo Luminescent Cell Viability Assay kit. A CellTiter-Glo Assay (Promega) was performed according to the manufacturer's instructions Luminescence was recorded with a PerkinElmer EnSpire Multimode Plate Reader. Survived cells were normalized to those cells treated with DMSO. Nec-1 was used as a positive control for screening necrosis inhibitors. Data are represented as mean±standard deviation of duplicates
Dose-dependent inhibition of necrosis by the compounds in HT-29 cells were determined by measuring ATP levels as described above.
As a reminder, the EC50 is the concentration needed to bring the measured effect to its halfway point. `CN(Cc1cc(F)cc(F)c1F)C(=O)C(C)(C)C` [Compound S2, N-methyl-N-(2,3,5-trifluorobenzyl)pivalamide]: the EC50 lay within 1 to 1000 nM.

Take `CN(Cc1cc(F)cc(F)c1F)C(=O)C1(C)CCCCC1` [Compound 65, N,1-dimethyl-N-(2,3,5-trifluorobenzyl)cyclohexanecarboxamide]: the EC50 was in the range of 1 to 1000 nM.

As to `CCC(C)(C)C(=O)N(C)Cc1ccccc1F` [Compound 13, N-(2-fluorobenzyl)-N,2,2-trimethylbutanamide], the EC50 was in the range of 1 to 1000 nM.

Take `CCC(C)(C)C(=O)N(O)Cc1ccc(F)cc1F` [Compound 96, N-(2,4-difluorobenzyl)-N-hydroxy-2,2-dimethylbutanamide]: the half-maximal effective concentration (EC50) was 1 to 1000 nM.

As for `CCC(C)(C)C(=O)NCc1cc(F)cc(F)c1F` [Compound 70, 2,2-dimethyl-N-(2,3,5-trifluorobenzyl)butanamide], the EC50 lay within 1 to 1000 nM.

On to `CCC(C)(C)C(=O)N(C)CC1CCCCC1` [Compound 39, N-(cyclohexylmethyl)-N,2,2-trimethylbutanamide], for which the EC50 was 1 to 1000 nM.

Take `CCC(C)(C)C(=O)N(CCO)Cc1cc(F)cc(F)c1F` [Compound 77, N-(2-hydroxyethyl)-2,2-dimethyl-N-(2,3,5-trifluorobenzyl)butanamide]: the EC50 is 1 to 1000 nM.

`CCC(C)(C)C(=O)N(O)Cc1ccc(F)c(F)c1` [Compound 95, N-(3,4-difluorobenzyl)-N-hydroxy-2,2-dimethylbutanamide]: the EC50 lay within 1 to 1000 nM.

On to `CCC(C)(C)C(=O)NCc1ccccc1` [Compound 58, N-benzyl-2,2-dimethylbutanamide], for which the EC50 was in the range of 1 to 1000 nM.

As to `CC1CCCC(C)N1C(=O)N(C)Cc1cc(F)cc(F)c1F` (centres unmarked) [Compound 121, N,2,6-trimethyl-N-(2,3,5-trifluorobenzyl)piperidine-1-carboxamide], the EC50 lay within 1 to 1000 nM.

Turning to `CCC(C)(C)C(=O)N(C)Cc1cccc(Cl)c1` [Compound 18, N-(3-chlorobenzyl)-N,2,2-trimethylbutanamide], the concentration for a half-maximal effect (EC50) fell in the range of 1 to 1000 nM.

As for `CCC(C)(C)C(=O)N(C)Cc1cccc(C#N)c1` [Compound 17, N-(3-cyanobenzyl)-N,2,2-trimethylbutanamide], the EC50 was 1 to 1000 nM.

For the compound `CCC(C)(C)C(=O)N(C)Cc1cc(C)c(C)s1` [Compound 128, N-((4,5-dimethylthiophen-2-yl)methyl)-N,2,2-trimethylbutanamide], the EC50 lay within 1 to 1000 nM.

The assay is the same for the next values; noted with them: Homo sapiens, HT-29, 24 h, HT-29, TNF-α + Smac mimetic + z-VAD, 24 hrs, ATP level; values given as ranges in uM; read-out: EC50 (inhibition of necrosis in HT-29 cells).
Take `CCN(Cc1cc(F)cc(F)c1F)C(=O)C1CCCCC1` [Compound 74, N-ethyl-N-(2,3,5-trifluorobenzyl)cyclohexanecarboxamide]: the concentration for a half-maximal effect (EC50) lay in the range of 1000 to 100000 nM.

Turning to `CC(F)(F)C(C)(C)C(=O)N(O)Cc1cc(F)c(F)c(F)c1` [Compound S13], the concentration for a half-maximal effect (EC50) was in the range of 1000 to 100000 nM.

With `CCC(C)(CC)C(=O)N(C)Cc1cc(F)c(F)c(F)c1` [Compound 72, 2-ethyl-N,2-dimethyl-N-(3,4,5-trifluorobenzyl)butanamide], the EC50 lay within 1000 to 10000 nM.

On to `CCC(C)(C)C(=O)N(C)Cc1ccc(OC)nc1` [Compound 38, N-((6-methoxypyridin-3-yl)methyl)-N,2,2-trimethylbutanamide], for which the EC50 was 1000 to 100000 nM.

As to `CCC(C)(C)C(=O)N(C)Cc1cc(F)ccc1Br` [Compound 56, N-(2-bromo-5-fluorobenzyl)-N,2,2-trimethylbutanamide], the EC50 lay within 1000 to 10000 nM.

With `CCC1(C(=O)N(C)Cc2cc(F)c(F)c(F)c2)CCCC1` [Compound 89, 1-ethyl-N-methyl-N-(3,4,5-trifluorobenzyl)cyclopentanecarboxamide], the EC50 lay within 1000 to 10000 nM.

For the compound `CC(C)(C)C(=O)NCc1cc(F)cc(F)c1F` [Compound S1, N-(2,3,5-trifluorobenzyl)pivalamide], the EC50 was in the range of 1000 to 10000 nM.

Consider `CCC(C)(C)C(=O)N(C)Cc1ccc(F)cc1` [Compound S7, N-(4-fluorobenzyl)-N,2,2-trimethylbutanamide], for which the EC50 lay within 1000 to 10000 nM.

As for `COCC(C)(C)C(=O)N(C)Cc1cc(F)c(F)c(F)c1` [Compound 71, 3-methoxy-N,2,2-trimethyl-N-(3,4,5-trifluorobenzyl)propanamide], the EC50 was in the range of 1000 to 100000 nM.

`CN(Cc1cc(F)cc(F)c1F)C(=O)C1(C)CC1` [Compound 80, N,1-dimethyl-N-(2,3,5-trifluorobenzyl)cyclopropanecarboxamide]: the EC50 is 1000 to 100000 nM.

As for `CCC(C)(C)C(=O)N[C@@H](CC(=O)OC)c1ccccc1` [Compound 100, (S)-methyl 3-(2,2-dimethylbutanamido)-3-phenylpropanoate], the EC50 was in the range of 1000 to 100000 nM.

On to `CCC(C)(C)C(=O)N(O)CC1=CCCC1` [Compound 140], for which the EC50 was in the range of 1000 to 100000 nM.

For `CCC(C)(C)C(=O)NCc1cccc(F)c1` [Compound 5, N-(3-fluorobenzyl)-2,2-dimethylbutanamide], the EC50 lay within 1000 to 10000 nM.

As to `C#CCN(Cc1ccccc1F)C(=O)C(C)(C)CC` [Compound 11, N-(2-fluorobenzyl)-2,2-dimethyl-N-(prop-2-yn-1-yl)butanamide], the EC50 is 1000 to 10000 nM.

As to `CN(Cc1cc(F)c(F)c(F)c1)C(=O)C(C)(C)CO` [Compound 66, 3-hydroxy-N,2,2-trimethyl-N-(3,4,5-trifluorobenzyl)propanamide], the EC50 lay in the range of 1000 to 100000 nM.

As for `CON(Cc1ccc(F)cc1F)C(=O)C(C)(C)C(C)(F)F` [Compound S16], the EC50 is 1000 to 100000 nM.

On to `CCC(C)(C)C(=O)N(O)Cc1ccc(C)s1` [Compound 137], for which the EC50 lay within 1000 to 100000 nM.

As for `CCC(C)(C)C(=O)N(C)Cc1cc(C)cc(C)c1` [Compound 32, N-(3,5-dimethylbenzyl)-N,2,2-trimethylbutanamide], the half-maximal effective concentration (EC50) was in the range of 1000 to 100000 nM.

With `CCC(C)(C)C(=O)N(C)Cc1ccn(C)n1` [Compound 45, N,2,2-trimethyl-N-((1-methyl-1H-pyrazol-3-yl)methyl)butanamide], the EC50 was 1000 to 100000 nM.

Turning to `CC(C)(C)C(=O)NCc1ccccc1` [Compound 2, N-benzylpivalamide], the EC50 lay in the range of 1000 to 10000 nM.

Take `CC1CCCCN1C(=O)N(C)Cc1cc(F)cc(F)c1F` (centres unmarked) [Compound 117, N,2-dimethyl-N-(2,3,5-trifluorobenzyl)piperidine-1-carboxamide]: the EC50 was in the range of 1000 to 10000 nM.

For `CCC(C)(C)C(=O)NCc1cccnc1` [Compound 9, 2,2-dimethyl-N-(pyridin-3-ylmethyl)butanamide], the EC50 fell in the range of 1000 to 10000 nM.

As for `CC(C)NC(=O)N(C)Cc1ccccc1F` [Compound 114, 1-(2-fluorobenzyl)-3-isopropyl-1-methylurea], the EC50 fell in the range of 1000 to 100000 nM.

Regarding `CCC(C)(C)C(=O)N(Cc1ccc(F)cc1)OC` [Compound 130], the EC50 was in the range of 1000 to 100000 nM.

For `CCC(C)(C)C(=O)N(O)Cc1sc(C)cc1C` [Compound 138], the EC50 fell in the range of 1000 to 100000 nM.

Consider `CCC(C)(C)C(=O)N(C)Cc1c(F)ccc(C)c1F` [Compound 50, N-(2,6-difluoro-3-methylbenzyl)-N,2,2-trimethylbutanamide], for which the EC50 was 1000 to 10000 nM.

On to `CN(Cc1ccccc1F)C(=O)C1CC1` [Compound 62, N-(2-fluorobenzyl)-N-methylcyclopropanecarboxamide], for which the EC50 fell in the range of 1000 to 100000 nM.

Take `CCC(C)(C)C(=O)NCc1cccc(Br)c1` [Compound 6, N-(3-bromobenzyl)-2,2-dimethylbutanamide]: the EC50 is 1000 to 10000 nM.

With `CCC(C)(C)C(=O)N(C)[C@@H](CO)c1ccccc1F` [Compound 148], the EC50 lay in the range of 1000 to 100000 nM.

As to `CCC(C)(C)C(=O)N(C)Cc1cc(F)ccc1C#N` [Compound 57, N-(2-cyano-5-fluorobenzyl)-N,2,2-trimethylbutanamide], the EC50 lay in the range of 1000 to 10000 nM.

In the case of `CCC(C)(C)C(=O)N[C@@H](C(=O)NCc1ccccc1)c1ccccc1` [Compound 124, (R)—N-(2-(benzylamino)-2-oxo-1-phenylethyl)-2,2-dimethylbutanamide], the EC50 was 1000 to 100000 nM.

Regarding `CCC(C)(C)C(=O)N(Cc1cc(F)cc(F)c1F)OC` [Compound 135], the EC50 was 1000 to 100000 nM.

For `CCC(C)(C)C(=O)NC(CO)c1ccccc1` (centres unmarked) [Compound 110, N-(2-hydroxy-1-phenylethyl)-2,2-dimethylbutanamide], the EC50 is 1000 to 100000 nM.

In the case of `CCC(C)(C)C(=O)N(C)Cc1c(F)c(F)cc(F)c1F` [Compound 51, N,2,2-trimethyl-N-(2,3,5,6-tetrafluorobenzyl)butanamide], the EC50 was in the range of 1000 to 10000 nM.

As to `CCC(C)(C)C(=O)N[C@@H](CC(=O)NCCOCCOC)c1ccccc1` [Compound 102, (S)—N-(3-((2-(2-methoxyethoxy)ethyl)amino)-3-oxo-1-phenylpropyl)-2,2-dimethylbutanamide], the EC50 was in the range of 1000 to 100000 nM.

With `CCC(C)(C)C(=O)N(Cc1ccc(F)c(F)c1)OC` [Compound 132], the EC50 lay within 1000 to 100000 nM.

As for `CCC(C)(C)C(=O)N(C)C(COC)c1ccccc1` (centres unmarked) [Compound 112, N-(2-methoxy-1-phenylethyl)-N,2,2-trimethylbutanamide], the EC50 lay in the range of 1000 to 100000 nM.

As to `CN(Cc1cc(F)cc(F)c1F)C(=O)C1CCC1` [Compound 83, N-methyl-N-(2,3,5-trifluorobenzyl)cyclobutanecarboxamide], the EC50 was 1000 to 10000 nM.

`CC(F)(F)C(C)(C)C(=O)N(O)Cc1ccc(F)cc1` [Compound S9]: the EC50 lay in the range of 1000 to 100000 nM.

On to `CN(Cc1cc(F)cc(F)c1F)C(=O)C1(c2ccccc2)CCCC1` [Compound 87, N-methyl-1-phenyl-N-(2,3,5-trifluorobenzyl)cyclopentanecarboxamide], for which the EC50 fell in the range of 1000 to 100000 nM.
